# Source: PubChem BioAssay (NCI)
#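 96-well plates; 48 h exposure; 5 concentrations. Endpoints by linear interpolation between flanking doses. Not reached: highest tested concentration assigned. GI50: concentration for 50% inhibition of growth. TGI: concentration producing complete growth inhibition.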
# Key:
# Test in all cases: NCI anticancer screen, dose series, 48 h
# [1] = test system: SK-MEL-28 melanoma
# [2] = test system: UACC-62 melanoma
# [3] = test system: HOP-62 NSCLC
# [4] = test system: A549 NSCLC
# [5] = test system: SN12C renal
# [6] = test system: HOP-92 NSCLC
# [7] = test system: K-562 leukemia
# [8] = test system: ACHN renal
# [9] = test system: NCI-H226 lung
# [10] = test system: SR leukemia
SMILES,TGI [1],TGI [2],TGI [3],TGI [4],TGI [5],TGI [6],TGI [7],TGI [8],TGI [9],GI50 [1],GI50 [2],GI50 [10],TGI [10],GI50 [3],GI50 [4],GI50 [5],GI50 [6],GI50 [8],GI50 [9],GI50 [7]
Cc1ccccc1CN1CC=c2ccccc2=N1,> 100 µM,> 100 µM,> 100 µM,> 100 µM,> 100 µM,> 100 µM,> 100 µM,> 100 µM,> 100 µM,–,–,–,–,–,–,–,–,–,–,–
CN(C)CC1(C)CC/C(=C\c2ccccc2)C1=O (stereo not drawn),> 100 µM,> 100 µM,> 100 µM,> 100 µM,> 100 µM,> 100 µM,> 100 µM,> 100 µM,> 100 µM,–,–,–,–,–,–,–,–,–,–,–
CN(C)CCNC(=O)c1cccc2[nH]c(-c3ccccc3)nc12,32.5 µM,32.6 µM,52.8 µM,31.7 µM,43.7 µM,42.1 µM,> 100 µM,33.3 µM,39.5 µM,–,–,–,–,–,–,–,–,–,–,–
COc1ccc2c(c1)CCC1C2CC[C@]2(C)/C(=N/OC(=O)Cc3ccccc3)CCC12 (stereo partly drawn),78.1 µM,30.9 µM,31.6 µM,42.7 µM,43.6 µM,81 µM,–,32 µM,36.5 µM,24.1 µM,15.3 µM,14.2 µM,33.3 µM,17.2 µM,19.3 µM,20.6 µM,25.2 µM,16.4 µM,18.8 µM,–
O=C(Nc1nc2ncn(CC(COc3ccccc3)OC(=O)c3ccccc3)c2c(=O)[nH]1)c1ccccc1 (stereo not drawn),> 100 µM,> 100 µM,> 100 µM,> 100 µM,> 100 µM,–,> 100 µM,> 100 µM,> 100 µM,–,–,–,> 100 µM,–,–,–,–,–,–,–
COc1ccc(C(c2c(O)c3ccccc3n(C)c2=O)c2c(O)c3ccccc3n(C)c2=O)cc1,> 100 µM,98 µM,–,> 100 µM,> 100 µM,> 100 µM,> 100 µM,> 100 µM,69.5 µM,–,–,–,> 100 µM,–,–,–,–,–,–,–
C1=Cc2nc1c(-c1ccncc1)c1ccc([n-]1)c(-c1ccncc1)c1nc(c(-c3ccncc3)c3ccc([n-]3)c2-c2ccncc2)C=C1.[Zn+2],> 100 µM,> 100 µM,> 100 µM,> 100 µM,> 100 µM,> 100 µM,> 100 µM,> 100 µM,> 100 µM,–,–,–,–,–,–,–,–,–,–,–
O=C1C(=O)C(Br)(Br)C(Br)=C1Br,29.7 µM,33.6 µM,> 100 µM,> 100 µM,51.8 µM,36.7 µM,41.3 µM,29.6 µM,–,–,–,–,–,–,–,–,–,–,–,–
Nc1c(C(=O)Nc2ccccc2Cl)sc2nc3c(cc12)CCCCCC3,> 100 µM,> 100 µM,–,73.2 µM,> 100 µM,6.54 µM,> 100 µM,4.86 µM,24.5 µM,10.2 µM,3.32 µM,2.18 µM,> 100 µM,–,4.54 µM,9.11 µM,1.77 µM,2.17 µM,3.76 µM,0.541 µM
COc1cc2nc(Nc3cccc(F)c3)nc(Nc3cc(C)[nH]n3)c2cc1OC,3.2 µM,3.66 µM,3.62 µM,–,3.79 µM,3.21 µM,4.94 µM,3.17 µM,–,1.77 µM,1.85 µM,2.27 µM,8.36 µM,1.87 µM,–,1.89 µM,1.67 µM,1.78 µM,–,1.36 µM
COc1ccc2nc3ccccc3c(NCCCCCCN(C)CCCl)c2c1,2.26 µM,1.61 µM,3.03 µM,3.34 µM,1.75 µM,1.33 µM,–,2.36 µM,1.55 µM,–,–,–,–,–,–,–,–,–,–,–
COC1=CC(c2ccc[nH]2)=N/C1=C\c1[nH]c(C)c(C(=O)CCCCC(=O)Nc2ccccc2)c1C,3.2 µM,24.5 µM,9.7 µM,–,4.38 µM,3.37 µM,2.74 µM,24 µM,6.11 µM,1.63 µM,8.71 µM,0.636 µM,3.69 µM,2.98 µM,–,1.67 µM,1.4 µM,10.3 µM,1.85 µM,1.43 µM
COC(=O)C(Cl)=C1CC1,54.3 µM,> 100 µM,> 100 µM,> 100 µM,> 100 µM,29.1 µM,60.5 µM,49.2 µM,> 100 µM,–,–,–,–,–,–,–,–,–,–,–
CC(C)(C)C(=O)C1CC(=O)c2ccccc2C1=O (stereo not drawn),72.8 µM,> 100 µM,62.9 µM,> 100 µM,> 100 µM,66.5 µM,> 100 µM,> 100 µM,> 100 µM,–,–,–,–,–,–,–,–,–,–,–
Cc1cc(Cl)ccc1N=C1NC(=O)C(CC(=O)Nc2ccc(Cl)cc2Cl)S1 (stereo not drawn),> 100 µM,> 100 µM,> 100 µM,> 100 µM,> 100 µM,–,> 100 µM,> 100 µM,–,–,–,–,–,–,–,–,–,–,–,–
COc1ccc(-c2ccc(C3CC(c4ccc(Cl)cc4)=NN3)o2)c([N+](=O)[O-])c1 (stereo not drawn),> 100 µM,> 100 µM,> 100 µM,> 100 µM,–,> 100 µM,> 100 µM,–,> 100 µM,> 100 µM,78.4 µM,> 100 µM,> 100 µM,> 100 µM,> 100 µM,–,> 100 µM,–,> 100 µM,> 100 µM
Nc1c(-c2ccc(Cl)cc2Cl)[n+]([O-])c2ccccc2[n+]1[O-],> 100 µM,> 100 µM,> 100 µM,> 100 µM,> 100 µM,–,> 100 µM,> 100 µM,> 100 µM,–,–,–,–,–,–,–,–,–,–,–
COc1cc(-c2cc(-c3nc4ccc(Cl)cc4[nH]3)[nH]n2)cc(OC)c1OC,7.11 µM,4.95 µM,10.7 µM,13.1 µM,15.6 µM,–,> 100 µM,12.9 µM,7.23 µM,2.42 µM,1.97 µM,3.32 µM,37.6 µM,3.11 µM,2.96 µM,3.06 µM,–,2.96 µM,1.88 µM,3.04 µM
C=C(C)[C@@H]1CC[C@]2(C)[C@H](CC[C@@H]3[C@H]4[C@H]5OC[C@@]4(CCC5(C)C)CC[C@]32C)[C@@]1(C)CCCN,3.36 µM,3.12 µM,4.42 µM,3.37 µM,3.2 µM,2.79 µM,9.01 µM,3.23 µM,–,1.83 µM,1.71 µM,–,–,2 µM,1.69 µM,1.63 µM,1.37 µM,1.84 µM,–,2.25 µM

SMILES,TGI [1],TGI [2],TGI [3],TGI [4],TGI [5],TGI [6],TGI [7],TGI [8],TGI [9],GI50 [1],GI50 [2],GI50 [10],TGI [10],GI50 [3],GI50 [4],GI50 [5],GI50 [6],GI50 [8],GI50 [9],GI50 [7]
Nc1ccn(C2CC(CO)C(O)C2O)c(=O)n1 (stereo not drawn),> 57.7 µM,> 57.7 µM,> 57.7 µM,> 57.7 µM,> 57.7 µM,–,> 57.7 µM,> 57.7 µM,> 57.7 µM,–,–,–,> 57.7 µM,–,–,–,–,–,–,–
COc1ccc2c(c1)CC[C@@H]1[C@@H]2CC[C@]2(C)C(c3ccco3)=C(C=O)C[C@@H]12,> 100 µM,16.3 µM,46.2 µM,65.1 µM,95.2 µM,28 µM,22.7 µM,13.5 µM,63.5 µM,15.8 µM,3.82 µM,–,–,20.9 µM,26.1 µM,23.1 µM,8.38 µM,3.56 µM,21.6 µM,3.56 µM
COC(=O)[C@]1(C)CCC[C@@]2(C)C1CCC1=CC3(C(C)C)CCC12OO3 (stereo partly drawn),–,> 100 µM,> 100 µM,> 100 µM,> 100 µM,–,> 100 µM,> 100 µM,> 100 µM,–,–,–,> 100 µM,–,–,–,–,–,–,–
COc1ccccc1CNCCCN1C(=O)c2ccc3c4c(ccc(c24)C1=O)C(=O)N(CCCNCCCN)C3=O,2.7 µM,2.17 µM,3.34 µM,2.13 µM,–,4.88 µM,3.76 µM,10.3 µM,3.2 µM,0.74 µM,0.653 µM,0.0273 µM,9.2 µM,0.444 µM,0.13 µM,–,0.971 µM,0.526 µM,0.746 µM,0.216 µM
CC1C=CC(=O)C(n2cc(F)c(=O)[nH]c2=O)O1 (stereo not drawn),46.8 µM,31.7 µM,45.7 µM,70.8 µM,38.4 µM,35.5 µM,79.8 µM,36.8 µM,–,–,–,–,–,–,–,–,–,–,–,–
OCC12C3C4C1C1C2C3C41CO (stereo not drawn),> 100 µM,> 100 µM,> 100 µM,> 100 µM,> 100 µM,> 100 µM,> 100 µM,> 100 µM,> 100 µM,–,–,–,–,–,–,–,–,–,–,–
COc1cc(-n2cc(-c3ccc(Cl)cc3)[nH]c2=O)cc(OC)c1OC,> 100 µM,64.1 µM,78.8 µM,> 100 µM,> 100 µM,–,> 100 µM,46 µM,83.3 µM,> 100 µM,23 µM,> 100 µM,> 100 µM,30.8 µM,34.6 µM,37.7 µM,–,21.6 µM,33.2 µM,> 100 µM
Nc1ccc(/C=N/Nc2ccnc3c(N)cccc23)c2cccnc12,3.51 µM,3.37 µM,3.53 µM,3.24 µM,–,3.14 µM,–,–,20.8 µM,1.87 µM,1.73 µM,0.0336 µM,0.153 µM,1.81 µM,1.68 µM,–,1.58 µM,–,4.12 µM,–
COc1ccc(/C=C2\CCC(C)(CN(C)C)C2=O)cc1 (stereo not drawn),> 100 µM,> 100 µM,> 100 µM,> 100 µM,> 100 µM,> 100 µM,> 100 µM,> 100 µM,> 100 µM,–,–,–,–,–,–,–,–,–,–,–
CCOC(=O)c1cn(Cc2ccccc2)c(=O)n1Cc1ccccc1,> 100 µM,> 100 µM,> 100 µM,> 100 µM,> 100 µM,> 100 µM,> 100 µM,> 100 µM,> 100 µM,–,–,–,–,–,–,–,–,–,–,–
Cn1cc(C2=C(c3cn(CCN)c4ccccc34)C(=O)NC2=O)c2ccccc21,> 25 µM,17.2 µM,> 19.7 µM,> 25 µM,> 25 µM,–,> 25 µM,> 25 µM,18.1 µM,7.68 µM,5.9 µM,4.8 µM,17 µM,6.07 µM,6.75 µM,5.87 µM,–,5.47 µM,4.44 µM,8.4 µM
COC(=O)C1=C(CO)C2C=CC1C2 (stereo not drawn),–,> 100 µM,> 100 µM,> 100 µM,> 100 µM,–,> 100 µM,> 100 µM,> 100 µM,–,–,–,–,–,–,–,–,–,–,–
NCCNC(=S)S,> 100 µM,> 100 µM,> 100 µM,> 100 µM,> 100 µM,–,95.1 µM,> 100 µM,> 100 µM,–,–,–,–,–,–,–,–,–,–,–
O=C1OC(O)C(Oc2ccc(Cl)cc2)=C1Cl (stereo not drawn),> 100 µM,> 100 µM,> 100 µM,> 100 µM,> 100 µM,> 100 µM,> 100 µM,> 100 µM,> 100 µM,–,–,–,–,–,–,–,–,–,–,–
CCOC(=O)c1sc(Nc2ccc(Cl)cc2)nc1C,4.23 µM,2.71 µM,5.06 µM,5.45 µM,4.81 µM,1.81 µM,9.07 µM,3.88 µM,4.46 µM,1.96 µM,1.17 µM,–,–,1.89 µM,2.17 µM,1.75 µM,0.346 µM,1.68 µM,1.76 µM,2.57 µM
N#CCCN(c1ccc(-c2nnc(NC(=O)CNNC(=O)CC(=O)Nc3ccccc3)s2)cc1)S(=O)(=O)c1ccccc1,> 100 µM,> 100 µM,> 100 µM,> 100 µM,> 100 µM,> 100 µM,> 100 µM,> 100 µM,> 100 µM,–,–,–,–,–,–,–,–,–,–,–
NC(=S)N/N=C1/C(=O)N(c2ccc(Cl)cc2Cl)C(=O)C(=O)C1c1nc2ccccc2s1 (stereo not drawn),> 100 µM,> 100 µM,> 100 µM,–,> 100 µM,> 100 µM,> 100 µM,> 100 µM,> 100 µM,–,–,–,–,–,–,–,–,–,–,–
Cc1cc(O)cc2c1O[C@@]1(C)CCC3[C@@]4(C)CC[C@H](O)C(C)(C)C4CC[C@@]3(C)[C@H]1C2 (stereo partly drawn),20.3 µM,21.9 µM,–,19.6 µM,25.4 µM,9.78 µM,6.56 µM,19 µM,24.9 µM,–,–,–,–,–,–,–,–,–,–,–
